Results as given in ChEMBL document CHEMBL3608282 (Bioorg Med Chem Lett, 2015).

Legend:
Hepatitis C virus [1] = test: Antiviral activity against HCV genotype 1b infected in human HuH7 cells assessed as reduction in viral RNA replication; type: functional, organism-based, Hepacivirus hominis; conditions: Huh-7
Hepatitis C virus [2] = test: Antiviral activity against HCV genotype 1a; type: functional, organism-based, Hepacivirus hominis; conditions: subtype 1a
Hepatitis C virus [3] = test: Antiviral activity against HCV genotype 1b expressing NS5A Y93H mutant infected in human HuH7 cells assessed as reduction in viral RNA replication; type: functional, organism-based, Hepacivirus hominis; conditions: Huh-7
Hepatitis C virus [4] = test: Antiviral activity against HCV genotype 1b expressing NS5A L31V mutant infected in human HuH7 cells assessed as reduction in viral RNA replication; type: functional, organism-based, Hepacivirus hominis; conditions: Huh-7
Hepatitis C virus [5] = test: Antiviral activity against wild type HCV genotype 1b infected in human HuH7 cells assessed as reduction in viral RNA replication; type: functional, organism-based, Hepacivirus hominis; conditions: Huh-7
[6] = Cytotoxicity against human HuH7 cells; type: cell-based; conditions: huh-7
Hepatitis C virus [7] = test: Antiviral activity against HCV genotype 2a; type: functional, organism-based, Hepacivirus hominis
CCRF-CEM = test: Cytotoxicity against human CEM cells; type: cell-based
[8] = Therapeutic index, ratio of CC50 for PBMC (unknown origin) to EC50 for HCV genotype 1b; conditions: PBMC (CC50) versus HCV genotype 1b (EC50)
[9] = Therapeutic index, ratio of CC50 for human HuH7 cells to EC50 for HCV genotype 1b; type: cell-based, Huh-7; conditions: HuH7 cells (CC50) versus HCV genotype 1b (EC50)
[10] = Therapeutic index, ratio of CC50 for human CEM cells to EC50 for HCV genotype 1b; type: cell-based, CCRF-CEM; conditions: CEM cells (CC50) versus HCV genotype 1b (EC50)
PBMC = test: Cytotoxicity against PBMC (unknown origin); type: cell-based
[11] = Therapeutic index, ratio of CC50 for african green monkey Vero cells to EC50 for HCV genotype 1b; type: cell-based; conditions: Vero cells (CC50) versus HCV genotype 1b (EC50)
Vero = test: Cytotoxicity against african green monkey Vero cells; type: cell-based; conditions: chlorocebus sabaeus
Hepatitis C virus [12] = test: Resistance index, ratio of EC50 for HCV genotype 1b expressing NS5A L31V mutant infected in human HuH7 cells to EC50 for wild type HCV genotype 1b infected in human HuH7 cells; type: functional, Hepacivirus hominis, Huh-7

SMILES	EC50 (Hepatitis C virus [1]) [nM]	EC90 (Hepatitis C virus [1]) [nM]	EC50 (Hepatitis C virus [2]) [nM]	EC50 (Hepatitis C virus [3]) [nM]	EC50 (Hepatitis C virus [4]) [nM]	EC50 (Hepatitis C virus [5]) [nM]	CC50 [6] [nM]	EC50 (Hepatitis C virus [7]) [nM]	CC50 (CCRF-CEM) [nM]	selectivity ratio [8]	selectivity ratio [9]	selectivity ratio [10]	CC50 (PBMC) [nM]	selectivity ratio [11]	CC50 (Vero) [nM]	Ratio EC50 (Hepatitis C virus [12])
COC(=O)N[C@H](C(=O)N1CCC[C@H]1c1nc(-c2ccc(-c3ccc(-c4c[nH]c([C@@H]5CCCN5C(=O)[C@@H](NC(=O)OC)C(C)C)n4)cc3)cc2)c[nH]1)C(C)C	0.004	0.02	0.048	0.18	0.035	0.048	> 15000	0.024								
COC(=O)N[C@@H](CSC)C(=O)N1CCC[C@H]1c1ncc(-c2ccc(-c3ccc(-c4cnc([C@@H]5CCCN5C(=O)[C@@H](NC(=O)OC)C(C)C)[nH]4)cc3)cc2)[nH]1	0.061	0.1							11000	> 1e+06	> 1e+06	> 1e+06	31000	> 1e+06	18000	
COC(=O)N[C@@H](CSC(C)(C)C)C(=O)N1CCC[C@H]1c1ncc(-c2ccc(-c3ccc(-c4cnc([C@@H]5CCCN5C(=O)[C@@H](NC(=O)OC)C(C)C)[nH]4)cc3)cc2)[nH]1	0.03	0.1	0.14	≥ 0.33	0.072	0.14	> 330000	0.055	10000	> 1e+06	> 1e+06	> 1e+06	18000	> 1e+06	39000	
COC(=O)N[C@@H](CSCc1ccccc1)C(=O)N1CCC[C@H]1c1ncc(-c2ccc(-c3ccc(-c4cnc([C@@H]5CCCN5C(=O)[C@@H](NC(=O)OC)C(C)C)[nH]4)cc3)cc2)[nH]1	0.02	0.032	0.1	> 0.33	0.39	0.1	> 330000	0.039	82000	> 1e+06	> 1e+06	> 1e+06	> 100000	> 1e+06	> 100000	>3
COC(=O)N[C@@H](CCSC)C(=O)N1CCC[C@H]1c1ncc(-c2ccc(-c3ccc(-c4cnc([C@@H]5CCCN5C(=O)[C@@H](NC(=O)OC)C(C)C)[nH]4)cc3)cc2)[nH]1	0.03	0.1	0.059	> 0.11	0.05	0.059	> 330000	0.027	11000	> 1e+06	> 1e+06	> 1e+06	41000	> 1e+06	40000	
COC(=O)N[C@@H](C[S+]([O-])Cc1ccccc1)C(=O)N1CCC[C@H]1c1ncc(-c2ccc(-c3ccc(-c4cnc([C@@H]5CCCN5C(=O)[C@@H](NC(=O)OC)C(C)C)[nH]4)cc3)cc2)[nH]1 (stereo partly specified)	0.1	0.3							11000	> 1e+06	> 1e+06	> 1e+06	42000	> 1e+06	11000	
COC(=O)N[C@@H](CS(=O)(=O)Cc1ccccc1)C(=O)N1CCC[C@H]1c1ncc(-c2ccc(-c3ccc(-c4cnc([C@@H]5CCCN5C(=O)[C@@H](NC(=O)OC)C(C)C)[nH]4)cc3)cc2)[nH]1	0.02	0.1							> 100000	> 1e+06	> 1e+06	> 1e+06	21000	> 1e+06	> 100000	
